# Measurements: PubChem BioAssay (NCI)
# Values joined by “and” are separate entries in the source; they are usually repeats but may differ in a detail not shown here. Identical values can stand only once.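 Exposure lasted 48 hours, with cells grown in 96-well plates and compounds tested at five concentrations. GI50 = concentration required for 50% inhibition of growth. Definition used: TGI = concentration required for complete inhibition of growth.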
# Tests used:
# Experiment in all cases: NCI tumour cell line growth inhibition, 48 h
# SF-539 CNS = system: SF-539 CNS
# BT-549 breast = system: BT-549 breast
# TK-10 renal = system: TK-10 renal
# MOLT-4 leukemia = system: MOLT-4 leukemia
# A498 renal = system: A498 renal
# SR leukemia = system: SR leukemia
# UACC-62 melanoma = system: UACC-62 melanoma
# HS 578T breast = system: HS 578T breast
Structure (SMILES),TGI (SF-539 CNS) [µM],TGI (BT-549 breast),TGI (TK-10 renal) [µM],TGI (MOLT-4 leukemia),TGI (A498 renal) [µM],TGI (SR leukemia) [µM],TGI (UACC-62 melanoma) [µM],TGI (HS 578T breast) [µM],GI50 (SF-539 CNS) [µM],GI50 (BT-549 breast),GI50 (TK-10 renal) [µM],GI50 (MOLT-4 leukemia) [µM],GI50 (A498 renal),GI50 (SR leukemia) [µM],GI50 (UACC-62 melanoma) [µM],GI50 (HS 578T breast)
CC1=NN(c2ccc(S(=O)(=O)O)cc2)C(=O)/C1=C/c1ccc(Cl)cc1,> 100,> 100 µM,> 100,> 100 µM,> 100,> 100,> 100,> 100,,,,,,,,
[Cl][Hg][c]1ccc(Cl)s1,4.46,5.21 µM,3.09,6.68 µM,31.2,,3.46,73.7,2.03,2.11 µM,1.66,1.64,17.2 µM,0.319,1.57,4.41 µM
Cc1nc(-c2nc(-c3ccc(OC(F)(F)F)cc3)no2)nn1Cc1cccc(N2CCC(S(C)(=O)=O)CC2)c1,> 100,38.6 µM,> 100,> 100 µM,17.1,97.9,> 100,> 82.1,> 40.4,1.07 µM,4.41,3.3,< 0.0198 µM,0.397,3.51,> 36.9 µM
C=C1C(=O)O[C@H]2C[C@@H]1CC/C(C)=C/CC/C(C)=C/CC[C@@]2(C)O,59.3,59.9 µM,67.7,> 100 µM,> 100,63.6,> 100,> 100,24.9,24.2 µM,21.5,24.5,43.8 µM,26.5,44.1,48 µM
Cn1nc(C(F)(F)F)cc1-c1c[nH]c(OCc2ccc(Cl)cc2)c(-c2ccc(Cl)c(C(F)(F)F)c2)c1=O,3.96,3.31 µM,> 36.6,3.03 µM,1.31,> 14.3,2.29,3.85,1.24,1.04 µM,1.8,1.16,0.446 µM,1.09,0.516,1.07 µM
c1ccc2cc(NCNc3ccc4ccccc4c3)ccc2c1,71.3,53.2 µM,> 67.6,29.9 µM,45.6,31.4,30.7,> 100,,,,,,,,
C[C@@H]1CCC([C@@H](C)[C@H]2CC[C@H]3[C@@H]4CC[C@H]5C[C@@H](O)CC[C@]5(C)[C@H]4CC[C@]23C)=NC1,> 100,> 85 µM,> 100,> 66 µM,> 100,> 100,> 70.8,> 100,,,,,,,,
O=C([O][Hg][CH2]C1OCCOC1[CH2][Hg][O]C(=O)c1ccccc1)c1ccccc1 (configuration not stated),29.7,20.4 µM,3.35,5.37 µM,34.8,7.21,30.3,43.9,13.3,8.22 µM,1.91,2.13,20.3 µM,2.22,16.5,16.1 µM
COC(=O)C1=COC(C)C2CN3CCc4c([nH]c5cc(OC)c(OC)cc45)C3CC12 (configuration not stated),> 100,> 100 µM and 61.6 µM,> 100,> 100 µM and 79.1 µM,> 100,> 100,> 100,> 100,,> 100 µM and 18.5 µM,,,,,,
CC1(C)CC[C@]2(C(=O)O)CC[C@]3(C)C(=CC[C@@H]4[C@@]5(C)C[C@H](O)[C@H](O)[C@@](C)(C(=O)O)[C@@H]5CC[C@]43C)[C@@H]2C1,> 100,> 100 µM,> 100,> 100 µM,> 100,> 100,> 94.2,> 100,,,,,,,,
NC(N)=NC(N)=Nc1cnccn1,> 100,,> 100,> 100 µM,> 100,,> 100,,,,,,,,,
CC(C)(C)[Si](C)(C)OC1[C@@H](O[Si](C)(C)C(C)(C)C)[C@@H](CNC(=O)NC(=O)CF)O[C@H]1n1cnc2c(NC(=O)Nc3ccccc3)ncnc21 (some centres not stated),> 50,42.5 µM,41.7,43.7 µM,25.3,32,> 50,> 50,14.5,12.2 µM,16.5,4.19,8.92 µM,4.5,31.2,10.1 µM
Cn1cc(C2=C(c3c4n(c5ccccc35)CCC(CN)C4)C(=O)NC2=O)c2ccccc21 (configuration not stated),7.16,7.75 µM,5.58,6.73 µM,7.6,7.81,6.21,8.2,3.63,4.06 µM,2.62,2.19,4.02 µM,2.17,3,1.55 µM
O=C(/C(=C/c1ccc([N+](=O)[O-])cc1)SCc1ccc(Cl)cc1)c1ccc(F)cc1,12.6,4.56 µM,29.5,> 100 µM,38.4,> 26.5,8.47,7.68,3.47,2.06 µM,12.9,2.83,13.9 µM,2.01,2.27,2.42 µM
COc1ccc(Sc2nc3cc(N)cc(N)c3nc2-c2ccccc2)cc1,> 100,,> 100,> 100 µM,> 100,,> 100,> 100,10,,30.6,4.19,> 100 µM,,38,> 100 µM
COc1ccc(Cn2cc3c(c2-c2ccccc2)CCc2cnoc2-3)cc1OC,5.6,,> 100,> 100 µM,3.27,> 100,> 100,6.94,1.02,,2.3,1.05,0.253 µM,0.353,0.581,0.564 µM
COc1ccc2c(c1)oc(=O)c1cc(OC)ccc12,> 100,> 100 µM,> 100,> 100 µM,99,,> 100,> 100,> 100,> 100 µM,> 100,> 100,1.56 µM,,63,> 100 µM

Structure (SMILES),TGI (SF-539 CNS) [µM],TGI (BT-549 breast),TGI (TK-10 renal) [µM],TGI (MOLT-4 leukemia),TGI (A498 renal) [µM],TGI (SR leukemia) [µM],TGI (UACC-62 melanoma) [µM],TGI (HS 578T breast) [µM],GI50 (SF-539 CNS) [µM],GI50 (BT-549 breast),GI50 (TK-10 renal) [µM],GI50 (MOLT-4 leukemia) [µM],GI50 (A498 renal),GI50 (SR leukemia) [µM],GI50 (UACC-62 melanoma) [µM],GI50 (HS 578T breast)
CC(=O)Nc1c(I)c(NC(C)=O)c(I)c(C(=O)O)c1I,,> 100 µM,> 100,> 100 µM,> 100,> 100,> 100,> 100,,> 100 µM,> 100,> 100,> 100 µM,> 100,> 100,> 100 µM
N#Cc1c(N)n2c(nc1=Nc1ccc(Cl)cc1)sc1cc(Cl)ccc12,> 100,> 100 µM,> 100,,9.62,> 100,> 100,5.92,8.7,24.8 µM,15,4.42,5.24 µM and 1.2 µM,2.26,2.85,2.98 µM and 1.44 µM
Cc1ccc2c(c1)c(Sc1ccc(C(=O)NO)cc1)c1n2CN(C)CC1,2.92,4.57 µM,6.73,6.98 µM,2.16,8.93,3.25,13,1.4,1.8 µM,2.19,2.05,0.191 µM,2.69,1.51,2.25 µM
CC/C(=C(/c1ccc(O)cc1)c1ccc(OCCN)cc1)c1ccccc1,8.01,19.6 µM,10.2,9.07 µM,16.8,4.53,7.43,12.8,3.73,6.31 µM,4.91,3,2.49 µM,1.78,2.44,2.82 µM
C[C@]12CC[C@@H]3c4cc(OC(F)F)c(OS(N)(=O)=O)cc4CC[C@H]3[C@@H]1CC[C@@H]2OS(N)(=O)=O,3.84,20.4 µM,49.1,47.7 µM,4.02,> 100,16.8,16.1,0.781,3.19 µM,13.6,1.06,0.934 µM,0.441,1.38,1 µM
COc1cc2c(cc1Cc1cccc(Cl)c1F)c(=O)c(C(=O)O)cn2[C@@H](CO)C(C)C,10.7,8.66 µM,,18.5 µM,14.2,13.8,10.1,32.7,3.39,2.09 µM,,4.67,2.26 µM,3.54,2.74,3.97 µM
N/C(=N/N=C/c1ccccc1)N/N=C\c1ccccc1,,46.4 µM,> 100,47.3 µM,> 100,,28.6,42.5,,7.2 µM,10.7,4.39,6.03 µM,,7.92,3.73 µM
CCCCCCCCCCCCSC1=C(Cl)C(=O)C(OC)=C(OC)C1=O,11.9,9.35 µM,24.6,18.6 µM,14.1,,17.6,7.96,2.81,1.2 µM,2.24,0.617,,,2.36,2.76 µM
CCNC(=O)Nc1ccc(Oc2ccnc3ccc4c(ccn4C)c23)cc1,85.1,> 100 µM,99.3,> 100 µM,,> 100,39.3,,23.6,56.3 µM,33.5,58.2,,12.1,19.5,
C=C1C(=O)O[C@H]2[C@H]1CC/C(C=Nc1c(N)cc(C(F)(F)F)cc1C(F)(F)F)=C\CC[C@@]1(C)O[C@@H]21,,3.17 µM,2.69,> 100 µM,3.51,5.17,2.99,7.45,,1.47 µM,1.38,0.517,1.49 µM,0.567,1.28,1.67 µM
COc1ccc2cc(C(=O)/C=C/c3ccc(N(C)C)cc3)ccc2c1,,> 100 µM,> 100,> 100 µM,,> 100,> 100,,,39.5 µM,43.9,> 100,,79.1,> 100,
Cc1ccc(-c2cc3c4c(nc5ccccc53)C(=O)c3cccnc3-c4n2)cc1,26.7,41 µM,97.3,> 100 µM,32.7,,31.1,43.8,6.68,17.4 µM,26.4,0.583,11.8 µM,,16,18.3 µM
Clc1ccc(Nc2ccnc(N3CCN(c4ccnc5cc(Cl)ccc45)CC3)n2)cc1,,6.92 µM,8.5,9.97 µM,6.91,8.75,6.97,7.79,,2.13 µM,3.43,2.94,0.603 µM,2.51,1.95,1.75 µM
CCCCCCn1c(-c2ccc(C(=O)O/N=C(\N)c3ccc4ccccc4c3)cc2)nc(-c2ccccc2)c1-c1ccccc1,> 100,> 100 µM,> 88.5,> 100 µM,> 26,,> 100,> 28.7,12.5,8 µM,16,> 100,2.09 µM,,22.6,2.55 µM
O=c1[nH]c(=O)c2cc3cc(C4CC(O)C(CO)O4)ccc3cc2[nH]1 (configuration not stated),> 100,> 100 µM,,> 100 µM,> 100,,> 100,> 100,> 100,> 100 µM,,> 100,> 100 µM,,> 100,> 100 µM
COc1cc(-c2oc3c(OC)cc(OC)c(O)c3c(=O)c2OC)cc(OC)c1OC,> 100,> 100 µM,> 100,> 100 µM,,> 100,> 100,8.21,,,,,,,,
Cc1ccc(NC(=O)c2cc3ccccc3c(N=Nc3cc(S(=O)(=O)O)ccc3O)c2O)c(C)c1,,> 100 µM,> 100,> 100 µM,> 100,,83.8,> 100,,,,,,,,
